From patent US4337252A, “1-Phenyl-4-morpholino-1-buten-3-01 derivatives, compositions and use” (Univablot, priority 1980, dated 1982) come the findings set out here.

Series [1] can be described thus: Toxicity: LD50 in mice by the intraperitoneal route (log-probits method of Miller and Tainter). The note with it: mouse, in vivo. How it is done:
The LD50 of the products was measured in mice by the intraperitoneal route according to the "log-probits" method of Miller and Tainter (Proc. Soc. Exptl. Biol. Med. 1944; 57, 261-264).

In series [2] the test system is reserpine-induced blepharospasm. Briefly: Reserpine antagonism (blepharospasm). The format is in vivo, Male, Swiss strain mice. The note with it: mice, IP, 1/10 of LD50, 30 min before reserpine 5 mg/kg IP; class symbols. How it is done:
3. Reserpine antagonism (blepharospasm) (Chen G., and Bohner B., (1961) J. Pharmacol. Exptl. Therap. 131, 179).
Reserpine administered to mice in a dosage of 5 mg/kg intraperitoneally subsequently causes the eyelids to drop more or less completely in the majority of the animals. The administration of certain products inhibits the blepharospasm produced by reserpine.
Male, Swiss strain mice are distributed into groups of 10 and each experiment comprises at least 3 groups:
a control group that receives only the solvent and reserpine
a group treated with a reference product: we chose imipramine
a treated group that receives the product being tested in a dosage of 1/10 of the LD50.
The products being tested are administered intraperitoneally 30 minutes before the intraperitoneal injection of reserpine in a dosage of 5 mg/kg, so as to study their activity as a function of time.
The degree of ptosis for each eye and for each animal is observed every 30 minutes for 4 to 5 hours, according to RUBIN's scoring system (RUBIN et al., J. Pharm. Exp. Therap. 1957, 120, 125-136). The activity of the product is determined by comparing the result obtained with the treated control group. The inhibition of blepharospasm is recorded from 0 to +++.

As usually defined, the LD50 is the dose at which mortality reaches 50%.

Molecules are shown by their SMILES.

In turn, `Oc1ccc(C=CC(O)CN2CCOCC2)cc1` (stereo not drawn) [Example 4] displayed an LD50 in series [1] (ip) of 650 mg/kg. For the same compound, in series [2], the “Blepharospasm (inhibition of reserpine-induced blepharospasm)” value is given as “++ (inhibition 26-45%)”.

In series [1] (ip), `C=CCOc1ccc(C=CC(O)CN2CCOCC2)cc1` (stereo not drawn) [Example 6] returned an LD50 of 300 mg/kg. Further, the “Blepharospasm (inhibition of reserpine-induced blepharospasm)” value in series [2] is on record as “++ (inhibition 26-45%)”.

Consider `OC(C=Cc1ccc(F)cc1)CN1CCOCC1` (stereo not drawn) [Example 3], for which the LD50 in series [1] (ip) was determined as 800 mg/kg. Moreover, the “Blepharospasm (inhibition of reserpine-induced blepharospasm)” value in series [2] is “++ (inhibition 26-45%)”.

Compound `COc1ccc(C=CC(O)CN2CCOCC2)cc1` (stereo not drawn) [Example 1, 1-(p-methoxyphenyl)-4-morpholino-1-buten-3-ol] gave a median lethal dose (LD50) in series [1] (mice, IP) of 500 mg/kg. In series [2], the “Blepharospasm (inhibition of reserpine-induced blepharospasm)” value is “+++ (inhibition >45%)”.

As to `C#CCOc1ccc(C=CC(O)CN2CCOCC2)cc1` (stereo not drawn) [Example 5], the LD50 in series [1] (ip) worked out at 400 mg/kg. The “Blepharospasm (inhibition of reserpine-induced blepharospasm)” value in series [2] is reported as “++ (inhibition 26-45%)”.

For `OC(C=Cc1ccc(Cl)cc1)CN1CCOCC1` (stereo not drawn) [Example 2], in series [1] (ip), the LD50 amounted to 400 mg/kg. Also, the “Blepharospasm (inhibition of reserpine-induced blepharospasm)” value in series [2] is listed as “+++ (inhibition >45%)”.
